Patent US10626094B2 (La Jolla Institute of Allergy & Immunology, priority 2014, dated 2020)

Assays:
LMPTP [1] = molecular target: T1, LMPTP (Homo sapiens (Human), UniProt P24666); test: LMPTP enzyme inhibition assay with pNPP as substrate; format: biochemical; details: n = 2; AID 743308; read-out: LMPTP Orthogonal assay IC50
[2] = aqueous solubility (buffer pH 5.0-7.4, PBS); format: physicochemical; details: for solubility: Pion's buffer
[3] = plasma stability, human plasma; format: in vitro ADME
Description: Plasma stability is a measure of the stability of small molecules and peptides in plasma and is an important parameter, which can strongly influence the in vivo efficacy of a test compound. Drug candidates are exposed to enzymatic processes (proteinases. esterases) in plasma, and they can undergo intramolecular rearrangement or bind irreversibly (covalently) to proteins.

[4] = hepatic microsomal stability, human liver microsomes; format: in vitro ADME
Description: (§1) In the course of this investigation many compounds with similar potencies in the LMPTP (OMFP) assay were found. In order to determine which compound would be the best candidate for in vivo studies, an abbreviated ADME panel was ran on these compounds, a tabulation of the most interesting data on this set of compounds is illustrated in Table 3 below. From the hepatic microsome stability data the candidate selected for in vivo studies was Compound D1.
(§2) The microsomal stability assay is commonly used to rank compounds according to their metabolic stability. This assay addresses the pharmacologic question of how long the parent compound will remain circulating in plasma within the body.

[5] = hepatic microsomal stability, mouse liver microsomes; format: in vitro ADME
Description: as §1, §2

LMPTP [6] = molecular target: T1, LMPTP; test: mechanism of action: LMPTP activity on OMFP at increasing inhibitor concentrations (Michaelis-Menten); format: biochemical
Protocol: Activity of 20 nM LMPTP on OMFP substrate in the presence of increasing concentrations of ML400. Reactions were conducted at 37° C. in 50 mM Bis-Tris, pH 6.0 with 1 mM DTT and 0.01% Triton X-100. Mean±SD is shown. Lines show fitting of data to the Michaelis-Menten equation. Note decrease in both Vmax and KM with increasing inhibitor concentration.

[7] = serum creatinine (kidney function) in treated mice; format: in vivo, mouse; details: treated mice vs vehicle
Protocol: Serum creatinine levels from mice treated with Compound D1 (ML400) or vehicle (mice shown in FIG. 9) were assessed using the QuantiChrom Creatinine Assay Kit from BioAssay Systems.

T1 sequence (P24666 whole entry): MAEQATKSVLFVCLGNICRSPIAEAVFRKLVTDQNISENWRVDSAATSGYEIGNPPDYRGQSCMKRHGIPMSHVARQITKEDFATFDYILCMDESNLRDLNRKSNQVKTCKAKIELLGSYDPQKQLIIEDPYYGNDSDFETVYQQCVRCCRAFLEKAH

## COc1ccc(-c2cc(NCCCN3CCCCC3)c3ccccc3n2)cc1 [Compound D1, 2-(4-methoxyphenyl)-N-(3-(piperidin-1-yl)propyl)quinolin-4-amine]
LMPTP [1]
  IC50: 3.52 ± 0.33 µM
[2]; PBS, versus aqueous buffer
  solubility in PBS: comparable
[2]; aqueous buffer, pH 5.0
  solubility: > 112 µg/mL
[2]; pH 6.2, aqueous buffer
  solubility: > 112 µg/mL
[2]; pH 7.4, aqueous buffer
  solubility: > 112 µg/mL
[2]; pH range of 5.0-7.4
  concentration achieved in aqueous buffer: 18-20 ×IC50
[3]; Human plasma, 3 hrs
  Plasma Stability % Remaining @ 3 hrs: 89.03%
[3]; human plasma
  plasma stability: good stability
[4]; Human microsomes, 1 hr
  Hepatic Microsome Stability % Remaining @ 1 hr: 61.56%
[4]; human liver microsomes after 1 hour
  microsomal stability: moderate stability
[5]; Mouse microsomes, 1 hr
  Hepatic Microsome Stability % Remaining @ 1 hr: 48.75%
[5]; mouse liver microsomes after 1 hour
  microsomal stability: moderate stability
LMPTP [6]; 20 nM LMPTP, OMFP substrate, 37° C., pH 6.0
  mechanism of action of LMPTP inhibition: uncompetitive
LMPTP [6]; increasing inhibitor concentration
  effect on Vmax and KM: lowering both Vmax and KM
[7]
  kidney function (serum creatinine): does not Affect Kidney Function
